Reference: patent US20080004272A1, “Compositions and methods for modulating gated ion channels” (PainCeptor Pharma Corporation, priority 2006, published 2008)
pIC50: −log10 of the molar value. Read-outs that look alike come from different tables or passages of the source.

Target: T1, ASIC1a (Homo sapiens, UniProt P78348)
T1 sequence (P78348 1-528): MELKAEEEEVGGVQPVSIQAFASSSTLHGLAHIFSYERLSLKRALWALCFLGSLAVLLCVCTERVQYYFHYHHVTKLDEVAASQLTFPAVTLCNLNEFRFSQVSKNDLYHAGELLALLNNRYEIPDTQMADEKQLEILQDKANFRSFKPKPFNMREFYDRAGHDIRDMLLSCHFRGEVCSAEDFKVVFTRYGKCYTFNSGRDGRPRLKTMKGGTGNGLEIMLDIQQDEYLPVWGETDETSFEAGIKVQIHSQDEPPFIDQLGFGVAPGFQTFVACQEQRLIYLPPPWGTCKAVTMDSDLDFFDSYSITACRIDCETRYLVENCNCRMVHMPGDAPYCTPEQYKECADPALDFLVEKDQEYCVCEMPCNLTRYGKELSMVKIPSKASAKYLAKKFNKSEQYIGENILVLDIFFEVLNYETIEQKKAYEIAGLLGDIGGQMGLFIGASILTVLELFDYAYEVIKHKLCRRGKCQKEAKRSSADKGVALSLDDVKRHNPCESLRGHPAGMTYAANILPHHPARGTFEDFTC
Test: Whole cell patch clamp in HEK293 cells transfected with hASIC1a
Format: cell-based
Set-up: expressed in transfected cells; host or cells: Xenopus laevis oocytes (nuclear microinjection of expression vector such as pcDNA3)
Procedure: Another example of an in vitro assessment method consists of using mammalian heterologous expression systems, which are known to the skilled in the art, and include a variety of mammalian cell lines such as COS, HEK, e.g., HEK293 and/or CHO, cells. Cell lines are transfected with gated ion channel(s) and used to perform electrophysiology as follows:
All experiments are performed at room temperature (20-25° C.) in voltage clamp using conventional whole cell patch clamp methods (Neher, E., et al. (1978) Pfluegers Arch 375:219-228).
The amplifier used is the EPC-9 (HEKA-electronics, Lambrect, Germany) run by a Macintosh G3 computer via an ITC-16 interface. Experimental conditions are set with the Pulse-software accompanying the amplifier. […]
Coverslips with the cells are transferred to a 15 μl experimental chamber mounted on the stage of an inverted microscope (IMT-2, Olympus) supplied with Nomarski optics. […] The cells are held at a holding voltage of −60 mV and at the start of each experiment the current is continuously measured for 45 s to ensure a stable baseline. […] Current amplitudes are measured at the peak of the responses, and effect of the compounds is calculated as the amplitude at compound equilibrium divided by the amplitude of the current evoked by the pulse just before the compound is included. […]

| Compound | pIC50 | pIC50 (HEK293 cells, whole cell patch clamp, six point dose-response, read-out: IC50, inhibition of acid-induced hASIC1a activity) |
| --- | --- | --- |
| CN1CCc2c(-c3ccccc3)cc(C#N)c(N)c2C1 [Compound 203, 8-Amino-2-methyl-5-phenyl-1,2,3,4-tetrahydro-isoquinoline-7-carbonitrile] | 5.12 |  |
| COc1ccc(F)cc1-c1cc(C#N)c(N)c2c1CCN(C)C2 [Compound 206, 8-Amino-5-(5-fluoro-2-methoxy-phenyl)-2-methyl-1,2,3,4-tetrahydro-isoquinoline-7-carbonitrile] |  | 4.55 |
